These results are taken from ChEMBL document CHEMBL1149095, “Structure-based optimization of novel azepane derivatives as PKB inhibitors” (J Med Chem, 2004).

The structures appear in SMILES notation. pIC50: −log10 of the molar value.

In series [1] the target is cAMP-dependent protein kinase A (Bos taurus, UniProt P00515+P00517+P05131+P31322). In words: Inhibition of bovine protein kinase A (PKA). Type of series: protein-complex assay.
The target of series [2] is RAC-alpha serine/threonine-protein kinase (Homo sapiens, UniProt P31749). Put plainly: Inhibition of Protein kinase B alpha.
Series [3] can be described thus: Half life in mice plasma. Type of series: ADME, organism-based. Conditions: mouse.

RAC-alpha serine/threonine-protein kinase, sequence (P31749 whole entry): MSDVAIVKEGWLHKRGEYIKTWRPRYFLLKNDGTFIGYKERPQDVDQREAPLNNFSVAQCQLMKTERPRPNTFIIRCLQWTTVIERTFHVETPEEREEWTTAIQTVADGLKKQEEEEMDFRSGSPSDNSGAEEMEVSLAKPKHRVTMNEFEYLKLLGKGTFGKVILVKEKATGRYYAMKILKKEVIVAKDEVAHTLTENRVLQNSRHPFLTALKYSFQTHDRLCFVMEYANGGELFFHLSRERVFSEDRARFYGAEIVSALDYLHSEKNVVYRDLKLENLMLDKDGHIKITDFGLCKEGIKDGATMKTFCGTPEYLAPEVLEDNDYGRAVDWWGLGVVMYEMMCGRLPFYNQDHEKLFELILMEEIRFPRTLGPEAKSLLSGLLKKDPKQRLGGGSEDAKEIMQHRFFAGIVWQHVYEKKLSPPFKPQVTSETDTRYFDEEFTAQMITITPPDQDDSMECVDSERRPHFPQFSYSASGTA

As a reminder, the pIC50 is −log10 of the IC50, conventionally taken in molar units. A high value points to a small IC50. With `COc1ccc(O)c(C(=O)c2ccc(NC[C@@H]3CCCNCC3NC(=O)c3ccncc3)cc2)c1F` (stereo not given in full), the pIC50 was 4.35 in series [1] and 4.60 in series [2].
A word on the half-life: it is the time in which the quantity being followed falls by half. Low readings indicate rapid decline, high ones slow decline. On to `COc1ccc(O)c(C(=O)c2ccc(C(=O)N[C@@H]3CCCNCC3NC(=O)c3ccncc3)cc2)c1F.Cl.Cl` (stereo not given in full), for which the half-life in series [3] is 69 h.
Turning to `COc1ccc(O)c(C(=O)c2ccc(/C=C/[C@@H]3CCCNC[C@H]3NC(=O)c3ccncc3)cc2)c1F`, in series [2], the pIC50 is 6.80.
In series [3], `COc1ccc(O)c(C(=O)c2ccc(CO[C@@H]3CCCNCC3NC(=O)c3ccncc3)cc2)c1F.Cl.Cl` (stereo not given in full) showed a half-life of 29 h. In series [2], this compound gave a pIC50 of 6.45.
In series [3], `COc1ccc(O)c(C(=O)c2ccc(C(=O)O[C@@H]3CCCNCC3NC(=O)c3ccncc3)cc2)c1F.Cl.Cl` (stereo not given in full) registered a half-life of less than 0.0167 h.
For the compound `COc1ccc(O)c(C(=O)c2ccc(CN[C@@H]3CCCNC[C@H]3NC(=O)c3ccncc3)cc2)c1F.Cl`, the results for the pIC50 in series [1] and in series [2] were 6.10 and 5.52, respectively. In addition, the half-life in series [3] is 161 h.
